The values below come from US12091409B2, “Ether linked triazoles as NRF2 activators” (ASTEX THERAPEUTICS LIMITED, priority 2016, dated 2024).

Counter-ions that a name gives are not always drawn.

Experiment [1] concerns NQO1 specific enzyme activity in BEAS-2B cells (marker for NRF2 activation). The experiment in a line: BEAS-2B NQO1 MTT Assay. The experiment is classed as cell-based. To be noted: Homo sapiens, BEAS-2B, 48 h, NQO1 specific activity induction, 48 hours with compound. In short, it runs like this:
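Following 48 h compound treatment at 37° C., 5% CO2, cells were lysed and MTT cocktail added. Product formation was followed kinetically at 570 nm for 30 min. Rate (Delta OD/min) against log concentration was fitted with 3 parameters to give pEC50 for induction of NQO1 specific activity.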

The subject of experiment [2] is rats on a choline-deficient L-amino acid-defined diet. Particulars: cited from earlier work.
Experiment [3] deals with COPD macrophages and alveolar macrophages from cigarette smoke-exposed mice. To be noted: cited from earlier work.
The subject of experiment [4] is rats in a cerebral ischemia-reperfusion model. Particulars: cited from earlier work.
For experiment [5], the system named is NRF2 wild-type but not KO mice. To be noted: after administration of tBHQ; cited from earlier work.

What is called EC50 is the midpoint of the concentration-response curve. Turning to `CC[C@@H]1CN(Cc2cc([C@@H](OCc3cn(CC)nn3)C(C)(C)C(=O)O)ccc2C)Cc2ncccc2O1` [Example 113, (R)-3-((1-Ethyl-1H-1,2,3-triazol-4-yl)methoxy)-3-(3-(((R)-2-ethyl-2,3-dihydropyrido[2,3-f][1,4]oxazepin-4(5H)-yl)methyl)-4-methylphenyl)-2,2-dimethylpropanoic Acid, Trifluoroacetate], the EC50 in experiment [1] fell in the range of 10 to 100 nM.

Take `CC[C@@H]1CN(Cc2cc([C@H](OCc3cn(CC)nn3)C(C)(C)C(=O)O)ccc2C)Cc2ncccc2O1` [Example 114, (S)-methyl 3-((1-ethyl-1H-1,2,3-triazol-4-yl)-methoxxy)-3-(3-(((R)-2-ethyl-2,3-dihydropyrido[2,3-f][1,4]oxazepin-4(5H)-yl)methyl)-4-methylphenyl)-2,2-dimethyl-propanoic acid, trifluoroacetate]: the EC50 in experiment [1] lay in the range of 100 to 1000 nM.

As for `CC[C@H]1Cc2cccnc2CN(Cc2cc([C@@H](OCc3cn(CC)nn3)C(C)(C)C(=O)O)ccc2C)C1` [Example 115, (R)-methyl 3-((1-ethyl-1H-1,2,3-triazol-4-yl)-methoxy)-3-(3-((S)-6-ethyl-6,7-dihydro-5H-pyrido[2,3-c]azepin-8(9H)-yl)methyl)-4-methylphenyl)-2,2-dimethyl-propanoic acid, trifluoroacetate], the concentration for a half-maximal effect (EC50) in experiment [1] was 1 to 10 nM.

In the case of `CC[C@H]1Cc2cccnc2CN(Cc2cc([C@H](OCc3cn(CC)nn3)C(C)(C)C(=O)O)ccc2C)C1` [Example 116, (S)-methyl 3-((1-ethyl-1H-1,2,3-triazol-4-yl)-methoxy)-3-(3-(((S)-6-ethyl-6,7-dihydro-5H-pyrido[2,3-c]azepin-8(9H)-yl)methyl)-4-methylphenyl)-2,2-dimethyl-propanoic acid, trifluoroacetate], in experiment [1], the EC50 is 10 to 100 nM.

As to `CC[C@@H]1CN(Cc2cc([C@@H](OCc3cn(CC)nn3)C(C)(C)C(=O)O)ccc2C)Cc2ccccc2O1` [Example 117, (R)-methyl 3-((1-ethyl-1H-1,2,3-triazol-4-yl)-methoxy)-3-(3-(((R)-2-ethyl-2,3-dihydro-benzo[f][1,4]oxazepin-4(5H)-yl)methyl)-4-methylphenyl)-2,2-dimethyl-propanoic acid, trifluoroacetate], in experiment [1], the EC50 was 10 to 100 nM.

As for `CC[C@@H]1CN(Cc2cc([C@H](OCc3cn(CC)nn3)C(C)(C)C(=O)O)ccc2C)Cc2ccccc2O1` [Example 118], the EC50 in experiment [1] is 1000 to 10000 nM.

Consider `CC[C@H]1Cc2ccccc2S(=O)(=O)N(Cc2cc([C@@H](OCc3cn(C)nn3)C(C)(C)C(=O)O)ccc2C)C1` [Example 119, (R)-3-(3-(((S)-4-Ethyl-1,1-dioxido-4,5-dihydrobenzo[f][1,2]thiazepin-2(3H)-yl)methyl)-4-methylphenyl)-2,2-dimethyl-3-((1-methyl-1H-1,2,3-triazol-4-yl)methoxy)propanoic acid], for which, in experiment [1], the EC50 was below 1 nM.

On to `CC[C@@H]1CN(Cc2cc([C@@H](OCc3cn(C)nn3)C(C)(C)C(=O)O)ccc2C)S(=O)(=O)c2ccccc2O1` [Example 120, (R)-3-(3-(((R)-4-Ethyl-1,1-dioxido-3,4-dihydro-2H-benzo[b][1,4,5]oxathiazepin-2-yl)methyl)-4-methylphenyl)-2,2-dimethyl-3-((1-methyl-1H-1,2,3-triazol-4-yl)methoxy)propanoic acid], for which the concentration for a half-maximal effect (EC50) in experiment [1] is below 1 nM.

As for `CC[C@@H]1CN(Cc2cc([C@@H](OCc3cn(C)nn3)C(C)(C)C(=O)O)ccc2C)S(=O)(=O)c2ncccc2O1` [Example 121, (R)-3-(3-(((R)-4-Ethyl-1,1-dioxido-3,4-dihydro-2H-pyrido[3,2-b][1,4,5]oxathiazepin-2-yl)methyl)-4-methylphenyl)-2,2-dimethyl-3-((1-methyl-1H-1,2,3-triazol-4-yl)methoxy)propanoic acid], the half-maximal effective concentration (EC50) in experiment [1] lay within 1 to 10 nM.

On to `O=C(NCc1ccccn1)Nc1nnc(-c2ccco2)o1` [NK-252], for which the “progression of histologic abnormalities, especially hepatic fibrosis” value in experiment [2] was “significantly attenuated”.

Regarding `C[S+]([O-])CCCCN=C=S` (centres unmarked) [Sulforaphane], the “expression of Macrophage Receptor with Collagenous structure (MARCO)” value in experiment [3] was “increases the expression of Macrophage Receptor with Collagenous structure (MARCO)”.

For the compound `Cc1c(-c2cnccn2)ssc1=S` [oltipraz], in experiment [2], the “progression of histologic abnormalities, especially hepatic fibrosis” value was “significantly attenuated”.

As to `CC(C)(C)c1cc(O)ccc1O` [tert-butylhydroquinone], the cortical damage result in experiment [4] is “reduced cortical damage”. Further, the cortical glutathione levels result in experiment [5] is “increased in NRF2 wild-type but not KO mice”.
